For test [1], the target named is T1, Glucagon-1 (Xenopus laevis, UniProt O42143).
T1 sequence (O42143 whole entry): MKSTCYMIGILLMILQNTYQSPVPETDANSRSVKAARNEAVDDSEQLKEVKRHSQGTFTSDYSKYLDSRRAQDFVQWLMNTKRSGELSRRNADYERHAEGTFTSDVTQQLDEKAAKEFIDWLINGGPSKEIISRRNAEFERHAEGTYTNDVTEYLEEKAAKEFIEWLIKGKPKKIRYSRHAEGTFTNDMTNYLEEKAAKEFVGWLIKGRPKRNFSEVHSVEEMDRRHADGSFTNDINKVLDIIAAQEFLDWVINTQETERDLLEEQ
Nature of the test: Inhibition of Xenopus laevis GLP-1A (1 to 37 residues).

The target in test [2] is T1, Glucagon-1. In words: Inhibition of Xenopus laevis GLP-1B (1 to 32 residues).
Test [3] addresses T1, Glucagon-1. In words: Inhibition of Xenopus laevis GLP-1C (1 to 30 residues).
The nature of test [4]: Inhibition of Ornithorhynchus anatinus GLP-1.

The IC50 is the midpoint of a concentration-inhibition curve. In turn, `CC[C@H](C)[C@H](NC(=O)[C@H](CC(C)C)NC(=O)[C@H](Cc1c[nH]c2ccccc12)NC(=O)[C@H](CC(=O)O)NC(=O)[C@@H](NC(=O)[C@H](Cc1ccccc1)NC(=O)[C@H](CCC(=O)O)NC(=O)[C@H](CCCCN)NC(=O)[C@H](C)NC(=O)[C@H](C)NC(=O)[C@H](CCCCN)NC(=O)[C@H](CCC(=O)O)NC(=O)[C@H](CC(=O)O)NC(=O)[C@H](CC(C)C)NC(=O)[C@H](CCC(N)=O)NC(=O)[C@H](CCC(N)=O)NC(=O)[C@@H](NC(=O)[C@@H](NC(=O)[C@H](CC(=O)O)NC(=O)[C@H](CO)NC(=O)[C@@H](NC(=O)[C@H](Cc1ccccc1)NC(=O)[C@@H](NC(=O)CNC(=O)[C@H](CCC(=O)O)NC(=O)[C@H](C)NC(=O)[C@@H](N)Cc1c[nH]cn1)[C@@H](C)O)[C@@H](C)O)C(C)C)[C@@H](C)O)[C@@H](C)CC)C(=O)N[C@@H](CC(N)=O)C(=O)NCC(=O)NCC(=O)N1CCC[C@H]1C(=O)N[C@@H](CO)C(=O)N[C@@H](CCCCN)C(=O)N[C@@H](CCC(=O)O)C(=O)N[C@H](C(=O)N[C@H](C(=O)N[C@@H](CO)C(=O)O)[C@@H](C)CC)[C@@H](C)CC` returned an IC50 on Glucagon-1 [1] of 12.7 nM.
Take `CC[C@H](C)[C@H](NC(=O)[C@H](CC(C)C)NC(=O)[C@H](Cc1c[nH]c2ccccc12)NC(=O)[C@H](CCC(=O)O)NC(=O)[C@@H](NC(=O)[C@H](Cc1ccccc1)NC(=O)[C@H](CCC(=O)O)NC(=O)[C@H](CCCCN)NC(=O)[C@H](C)NC(=O)[C@H](C)NC(=O)[C@H](CCCCN)NC(=O)[C@H](CCC(=O)O)NC(=O)[C@H](CCC(=O)O)NC(=O)[C@H](CC(C)C)NC(=O)[C@H](Cc1ccc(O)cc1)NC(=O)[C@H](CCC(=O)O)NC(=O)[C@@H](NC(=O)[C@@H](NC(=O)[C@H](CC(=O)O)NC(=O)[C@H](CC(N)=O)NC(=O)[C@@H](NC(=O)[C@H](Cc1ccc(O)cc1)NC(=O)[C@@H](NC(=O)CNC(=O)[C@H](CCC(=O)O)NC(=O)[C@H](C)NC(=O)[C@@H](N)Cc1c[nH]cn1)[C@@H](C)O)[C@@H](C)O)C(C)C)[C@@H](C)O)[C@@H](C)CC)C(=O)N[C@@H](CCCCN)C(=O)NCC(=O)N[C@@H](CCCCN)C(=O)N1CCC[C@H]1C(=O)N[C@@H](CCCCN)C(=O)O`: 2.9 nM corresponded to half-maximal inhibition on Glucagon-1 [2] (IC50).
For H-HAEGTFTNDMTNYLEEKAAKEFVGWLIKGRPK-OH, inhibition on Glucagon-1 [3] was half-maximal at 43.4 nM (IC50). This lies in the double-digit nanomolar range.
Regarding H-HFDGVYTDYFSRYLEEKATNEFIDWLLKGQE-OH, in test [4], the IC50 was determined as 7.4 nM.
Molecule H-HSEGTFTNDVTRLLEEKATSEFIAWLLKGLE-OH showed an IC50 in test [4] of 7.4 nM.

These data come from ChEMBL document CHEMBL6083179, “Glucagon-like peptide-1 analogs: Miracle drugs are blooming?” (Eur J Med Chem, 2024).
